Earlier results in paper PMC3179684 (Toxicological Sciences, 2011).
Where two headings read alike, the source gives them in different places.

How the values were obtained:
epoxide hydrolase (EH) [1] = conditions: rat liver microsomes; about the same obtained here; ref Faller et al., 2001; cited from earlier work
epoxide hydrolase (EH) [2] = conditions: mouse liver microsomes; about the same obtained here; ref Faller et al., 2001; cited from earlier work
[3] = 37°C, pH 7, estimated; ref Faller et al., 2001; cited from earlier work
[4] = GSH 15 mmol/l; ref Faller et al. (2001); cited from earlier work
[5] = determined using a synthetic iron porphyrin; ref Collman et al., 1986; cited from earlier work

Row | Structure (SMILES) | hepatic microsomal elimination clearance (epoxide hydrolase (EH) [1]) | hepatic microsomal elimination clearance (epoxide hydrolase (EH) [2]) | half-life of the noncatalyzed aqueous hydrolysis [3] | half-life of nonenzymatic GSH conjugation [4] | partition ratio k3/k4 [5]
1 | CC1CO1 (centres unmarked) [PO, propylene oxide] | 9.9 μl/min/mg protein | 4.4 μl/min/mg protein | 88 h | 1.7 h | –
2 | C=Cc1ccccc1 [Styrene, styrene] | – | – | – | – | 10,000
